Experimental data as given in US20150057465A1, “CONTROL OF GROWTH-INDUCTION-PRODUCTION PHASES” (OPX BIOTECHNOLOGIES, INC., priority 2013, published 2015).
Entries after “also recorded” stand apart in the source; their conditions may differ. Where two headings read alike, the source gives them in different places.

Columns and labels:
E. coli strains = experiment: Growth inhibition of E. coli strains grown in the presence of 3-HP; type: cell-based
E. coli ACCase = E. coli ACCase (Escherichia coli, UniProt P0A9Q5+P0ABD5+P0ABD8+P24182); conditions: for effect of salt on ACCase activity: E. coli ACCase, dose-dependent studies, FIG. 4; for decrease of the activity of the ACCase enzyme: relative to control (FIG. 4)
Description: Levels of greater than 0.66M (60 g/L) are expected to be present for commercially viable commercial production of 3-HP.
Each gene was amplified by PCRs with Pfu Ultra II HS using the manufacturer's instructions, and the PCR products were purified using the Zymo PCR Cleanup kit. Concentrations of products were measured using the Nanodrop spectophotometer. The Gibson Assembly kit (NEB) was used to construct plasmids expressing the ACCase subunit genes as directed by the manufacturer. The effect of NH4-3-HP and NH4Cl on H. elongata ACCase was tested and compared to the E. coli ACCase.

H. elongata ACCase = experiment: Salt inhibition of H. elongata ACCase activity; type: biochemical, Halomonas elongata; conditions: ACCase from the halophile H. elongata, compared to E. coli ACCase, FIG. 4
Description: Accordingly, the genes encoding the accA, accB, accC, accD of H. elongata described in Table 1 were synthesized for expression in E. coli using codons optimized for this organism and supplied individually on pUC57 plasmids without promoters. Synthetic operons comprising the subunits were assembled using the Gibson assembly method.
Concentrations of products were measured using the Nanodrop spectophotometer.

3HP titer = experiment: 1 L fermentation with overexpression of rhtA exporter, 3HP titer; type: cell-based, E. coli; conditions: compared to control plasmid without rhtA, FIG. 7
Description: A known chemical exporter from E. coli that has been previously characterized for homoserine transport, rhtA, was evaluated for increased production of 3-HP. A mutant version of the exporter, rhtA(P2S) (SEQ ID NO. 30 nucleic acid, SEQ ID NO. 31 protein) was synthesized behind the PtpiA promoter and inserted into the pTRC-PyibD-MCR plasmid behind a terminator using the Gibson Assemply kit (NEB) according to manufacturer's instructions. The effects of overexpression of rhtA were evaluated in 1 L fermentation compared to the control plasmid without rhtA. […] Construction of plasmids expressing another putative transporter, ydcO (SEQ ID NO. 32 nucleic acid, SEQ ID NO. 33 protein) is carried out in the same manner.

[1] = salts of 3-HP levels near 0.66M

Sequence of E. coli ACCase (P0A9Q5 whole entry): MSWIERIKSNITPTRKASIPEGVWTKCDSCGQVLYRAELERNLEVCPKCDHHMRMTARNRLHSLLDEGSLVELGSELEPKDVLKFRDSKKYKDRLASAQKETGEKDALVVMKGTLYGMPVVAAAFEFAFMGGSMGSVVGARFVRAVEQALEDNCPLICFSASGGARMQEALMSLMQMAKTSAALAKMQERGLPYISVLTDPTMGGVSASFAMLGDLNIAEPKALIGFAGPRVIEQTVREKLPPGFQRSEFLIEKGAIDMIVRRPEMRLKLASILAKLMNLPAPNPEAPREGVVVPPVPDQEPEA
Sequence of E. coli ACCase (P0ABD5 whole entry): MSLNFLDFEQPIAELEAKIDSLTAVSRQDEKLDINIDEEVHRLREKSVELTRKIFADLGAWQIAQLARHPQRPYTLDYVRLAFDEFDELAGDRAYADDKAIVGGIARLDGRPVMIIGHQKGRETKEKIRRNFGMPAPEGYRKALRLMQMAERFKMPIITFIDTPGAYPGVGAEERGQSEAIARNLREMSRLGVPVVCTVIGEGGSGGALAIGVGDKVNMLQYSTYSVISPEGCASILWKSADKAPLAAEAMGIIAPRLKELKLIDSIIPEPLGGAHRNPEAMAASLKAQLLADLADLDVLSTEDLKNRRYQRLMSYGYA

Row | Molecule | effect of salt on ACCase activity (E. coli ACCase) | decrease of the activity of the ACCase enzyme (E. coli ACCase; [1]) | effect of salt on ACCase activity (H. elongata ACCase) | decrease of the activity of the ACCase enzyme (E. coli ACCase; salt levels near 0.44M) | further results
1 | O=C(O)CCO [3-HP, 3-hydroxypropionic acid] |  |  |  |  | 3-HP level at which growth inhibition was demonstrated (E. coli strains): ≥ 20 g/L
2 | N.O=C(O)CCO [NH4-3-HP] | significantly inhibited | approximately 80% | less affected |  | 
3 | Cl.N [NH4Cl] | significantly inhibited |  | less affected | approximately 80% | 
4 | O=C([O-])CCO.[Na+] [Na-3-HP] | inhibitory effects | approximately 80% |  |  | 
5 | [Cl-].[Na+] [NaCl] | inhibitory effects |  |  | approximately 80% | 
6 | rhtA: chemical exporter from E. coli characterized for homoserine transport; mutant rhtA(P2S), SEQ ID NO. 30, 31, overexpressed (protein, chemical exporter from E. coli characterized for homoserine transport; 30, 31, overexpressed) MSGSLRKMPVWLPIVILLVAMASIQGGASLAKSLFPLVGAPGVTALRLALGTLILIAFFKPWRLRFAKEQRLPLLFYGVSLGGMNYLFYLSIQTVPLGIAVALEFTGPLAVALFSSRRPVDFVWVVLAVLGLWFLLPLGQDVSHVDLTGCALALGAGACWAIYILSGQRAGAEHGPATVAIGSLIAALIFVPIGALQAGEALWHWSVIPLGLAVAILSTALPYSLEMIALTRLPTRTFGTLMSMEPALAAVSGMIFLGETLTPIQLLALGAIIAASMGSTLTVRKESKIKELDIN |  |  |  |  | 3HP titer (3HP titer): improved production of 3-HP; also recorded: significant improvement in 3HP titer
